Experimental data from ChEMBL document CHEMBL5528039, “Discovery of a Macrocyclic Influenza Cap-Dependent Endonuclease Inhibitor” (J Med Chem, 2024).

How the values were obtained:
Influenza A virus [1] = assay: Antiviral activity against Influenza A virus A/PR/8/34 (H1N1) infected in MDCK cells assessed as reduction in virus-induced cytopathic effect incubated for 5 days by CCK8 based microplate spectrophotometric analysis; format: functional, organism-based; conditions: 120 h; for EC90: time 5 day
[2] = Inhibition of influenza A virus A/WSN/33 (H1N1) RNA polymerase transfected in HEK293T/17 cells incubated for 24 hrs by dual luciferase reporter gene assay; format: cell-based; conditions: HEK293T/17, 24 h
Influenza A virus [3] = assay: Antiviral activity against Influenza A virus A/California/07/2009 (H1N1) infected in MDCK cells assessed as reduction in virus-induced cytopathic effect incubated for 5 days by CCK8 based microplate spectrophotometric analysis; format: functional, organism-based; conditions: 120 h
Influenza A virus [4] = assay: Antiviral activity against Influenza A virus A/California/2/2014 (H3N2) infected in MDCK cells assessed as reduction in virus-induced cytopathic effect incubated for 5 days by CCK8 based microplate spectrophotometric analysis; format: functional, organism-based; conditions: 120 h
Influenza B virus [5] = assay: Antiviral activity against Influenza B virus B/Lee/40 infected in MDCK cells assessed as reduction in virus-induced cytopathic effect incubated for 5 days by CCK8 based microplate spectrophotometric analysis; format: functional, organism-based; conditions: B/Lee/40, MDCK, 120 h
Influenza B virus [6] = assay: Antiviral activity against Influenza B virus B/Florida/78/2015 infected in MDCK cells assessed as reduction in virus-induced cytopathic effect incubated for 5 days by CCK8 based microplate spectrophotometric analysis; format: functional, organism-based; conditions: B/Florida/78/2015, MDCK, 120 h
[7] = Protein binding in mouse plasma assessed as unbound fraction at 400 uM incubated for 4 hrs by LC-MS/MS analysis; format: ADME, cell-free
[8] = Protein binding in human plasma assessed as unbound fraction at 400 uM incubated for 4 hrs by LC-MS/MS analysis; format: ADME, cell-free
[9] = Metabolic stability in human liver microsomes assessed as intrinsic clearance at 1 uM measured upto 60 mins in presence of NADPH by LC-MS/MS analysis; format: ADME, Microsome; conditions: 1 h
[10] = Clearance in BALB/c mouse at 2 mg/kg, iv measured after 24 hrs by LC-MS/MS analysis; format: ADME, organism-based; conditions: in vivo
[11] = Volume of distribution at steady state in BALB/c mouse at 2 mg/kg, iv measured after 24 hrs by LC-MS/MS analysis; format: ADME, organism-based; conditions: in vivo, read-out: Vdss
[12] = Half-life in BALB/c mouse at 2 mg/kg, iv measured after 24 hrs by LC-MS/MS analysis; format: ADME, organism-based; conditions: in vivo
[13] = AUC (0 to last) in BALB/c mouse at 2 mg/kg, iv measured after 24 hrs by LC-MS/MS analysis; format: ADME, organism-based; conditions: in vivo

Question: With `CN1C(=O)c2c(O)c(=O)ccn2N2C(c3ccccc3)c3ccccc3OCCC12` (racemic) as the molecule, how does the EC50 (Influenza A virus [1]) read?
Answer: The EC50 was greater than 1000 nM.

Question: And the EC90 (Influenza A virus [1])?
Answer: Its EC90 is greater than 1000 nM.

Question: For `CN1C(=O)c2c(O)c(=O)ccn2N2[C@H](c3ccccc3Br)c3cc(F)c(F)cc3OCC[C@@H]12` (racemic), which EC50 (Influenza A virus [1]) is on record?
Answer: The EC50 was 11 nM.

Question: And the EC90 (Influenza A virus [1])?
Answer: The EC90 was 18 nM.

Question: What does the source list for `CN1C(=O)c2c(O)c(=O)ccn2N2[C@@H](c3ccccc3)c3ccccc3OCC[C@H]12`?
Answer: EC50 (Influenza A virus [1]): > 500 nM; EC90 (Influenza A virus [1]): > 500 nM

Question: What does the source list for `CN1C(=O)c2c(O)c(=O)ccn2N2[C@H](c3ccc(F)cc3)c3cc(F)c(F)cc3OCC[C@@H]12`?
Answer: EC50 (Influenza A virus [1]): 14 nM; EC90 (Influenza A virus [1]): 24 nM

Question: Which EC50 (Influenza A virus [1]) does the source give for `O=C1c2c(O)c(=O)ccn2N2[C@H](c3ccccc3)c3ccccc3OCC[C@H]2N1C1CCC1` (racemic) here?
Answer: The EC50 was 65 nM.

Question: What about the EC90 (Influenza A virus [1]) of the same molecule?
Answer: The EC90 was 120 nM.

Question: With `CN1C(=O)c2c(O)c(=O)ccn2N2[C@H](c3ccc(F)c(F)c3)c3cc(F)c(F)cc3OCC[C@@H]12` as the molecule, how does the EC50 (Influenza A virus [1]) read?
Answer: Its EC50 is 25 nM.

Question: What about the EC90 (Influenza A virus [1]) of the same molecule?
Answer: The EC90 was 42 nM.

Question: With `O=C1c2c(O)c(=O)ccn2N([C@@H]2c3ccccc3SCc3c2ccc(F)c3F)[C@@H]2COCCN12` [BALOXAVIR] as the molecule, how does the EC50 (Influenza A virus [1]) read?
Answer: Its EC50 is 2.1 nM.

Question: What about the EC90 (Influenza A virus [1]) of the same molecule?
Answer: The EC90 was 4.6 nM.

Question: And the EC50 [2]?
Answer: Its EC50 is 5.46 nM.

Question: What about the EC50 (Influenza A virus [3]) of the same molecule?
Answer: The EC50 was 1.4 nM.

Question: And the EC90 (Influenza A virus [3]; time 5 day)?
Answer: The EC90 was 3 nM.

Question: And the EC50 (Influenza A virus [4])?
Answer: The EC50 was 1.2 nM.

Question: What about the EC90 (Influenza A virus [4]; time 5 day) of the same molecule?
Answer: Its EC90 is 1.8 nM.

Question: And the EC50 (Influenza B virus [5])?
Answer: Its EC50 is 21 nM.

Question: And the EC90 (Influenza B virus [5]; time 5 day)?
Answer: Its EC90 is 43 nM.

Question: And the EC50 (Influenza B virus [6])?
Answer: Its EC50 is 4.8 nM.

Question: What about the EC90 (Influenza B virus [6]; time 5 day) of the same molecule?
Answer: Its EC90 is 7.4 nM.

Question: What about the fraction unbound at 4 h, 400 µM [7] of the same molecule?
Answer: The fraction unbound at 4 h, 400 µM was 0.153.

Question: And the fraction unbound at 4 h, 400 µM [8]?
Answer: The fraction unbound at 4 h, 400 µM was 0.083.

Question: And the CLint [9]?
Answer: The CLint was less than 8.6 µL/min/mg.

Question: And the clearance [10]?
Answer: The clearance was 61.6 mL/min/kg.

Question: And the Vd [11]?
Answer: Its Vd is 14 L/kg.

Question: And the half-life [12]?
Answer: The half-life was 3.9 h.

Question: What about the AUC(0-t) at 24 h [13] of the same molecule?
Answer: The AUC(0-t) at 24 h was 1.35 µM·h.
